pIC50: −log10 of the molar value. Converted amounts (≈) assume the structure as drawn.
Legend:
MCF7 = assay: Antitumor activity against human MCF7 cells assessed as inhibition of cell viability incubated for 48 hrs by MTT assay; format: functional, cell-based; conditions: MCF7, 48 h
Candida albicans [1] = assay: Antimicrobial activity against Candida albicans incubated for 48 hrs by disc diffusion assay; format: functional
Ehrlich [2] = assay: Antitumor activity against mouse EAC cells implanted in Swiss albino mouse assessed as mean survival time at 0.5 mg for 9 days (reference value: 14.5 day); format: functional
Escherichia coli [3] = assay: Antimicrobial activity against Escherichia coli incubated for 24 hrs by disc diffusion assay; format: functional
Staphylococcus aureus [4] = assay: Antimicrobial activity against Staphylococcus aureus incubated for 24 hrs by disc diffusion assay; format: functional
Ehrlich [5] = assay: Antitumor activity against mouse EAC cells implanted in Swiss albino mouse assessed as tumor volume at 0.5 mg for 9 days (reference value: 9.85 ml); format: functional
Mus musculus [6] = assay: Toxicity in mouse EAC cells implanted Swiss albino mouse assessed as WBC count at 0.5 mg for 9 days (reference value: 23.96 10^3/mm3); format: organism-based; conditions: in vivo, 216 h
Aspergillus fumigatus [7] = assay: Antimicrobial activity against Aspergillus fumigatus incubated for 48 hrs by disc diffusion assay; format: functional
[8] = system: Chromobacterium violaceum; assay: Inhibition of quorum sensing system in Chromobacterium violaceum ATCC 12472 assessed as inhibition of violacein production at 5 mg/mL incubated for 48 hrs
HepG2 = assay: Antitumor activity against human HepG2 cells assessed as inhibition of cell viability incubated for 48 hrs by MTT assay; format: functional, cell-based; conditions: HepG2, 48 h
Bacillus cereus [9] = assay: Antimicrobial activity against Bacillus cereus incubated for 24 hrs by disc diffusion assay; format: functional
HT-29 = assay: Antitumor activity against human HT-29 cells assessed as inhibition of cell viability incubated for 48 hrs by MTT assay; format: functional, cell-based; conditions: HT-29, 48 h
Mus musculus [10] = assay: Toxicity in mouse EAC cells implanted Swiss albino mouse assessed as RBC count at 0.5 mg for 9 days (reference value: 3.69 10^6/mm3); format: organism-based; conditions: in vivo, 216 h
Ehrlich [11] = assay: Antitumor activity against mouse EAC cells implanted in Swiss albino mouse assessed as increase in life span at 0.5 mg for 9 days relative to untreated control; format: functional
Mus musculus [12] = assay: Toxicity in mouse EAC cells implanted Swiss albino mouse assessed as hemoglobin level at 0.5 mg for 9 days (reference value: 8.15 g/dl); format: organism-based; conditions: in vivo, 216 h
Candida albicans [13] = assay: Antimicrobial activity against Candida albicans incubated for 48 hrs by serial dilution method; format: functional
WI-38 = assay: Cytotoxicity in human WI38 cells assessed as inhibition of cell viability incubated for 48 hrs by MTT assay; format: cell-based; conditions: WI-38, 48 h
[14] = Binding affinity to DNA (unknown origin) assessed as reduction in absorption maxima for methyl green/DNA complex incubated for 24 hrs by methyl green/DNA displacement assay
Bacillus cereus [15] = assay: Antimicrobial activity against Bacillus cereus incubated for 24 hrs by serial dilution method; format: functional
Aspergillus fumigatus [16] = assay: Antimicrobial activity against Aspergillus fumigatus incubated for 48 hrs by serial dilution method; format: functional
Staphylococcus aureus [17] = assay: Antimicrobial activity against Staphylococcus aureus incubated for 24 hrs by serial dilution method; format: functional
Escherichia coli [18] = assay: Antimicrobial activity against Escherichia coli incubated for 24 hrs by serial dilution method; format: functional

Row | Compound | pIC50 (MCF7) | diameter of the inhibition zone (DIZ) (Candida albicans [1]) [mm] | diameter of the inhibition zone (DIZ) (Escherichia coli [3]) [mm] | diameter of the inhibition zone (DIZ) (Staphylococcus aureus [4]) [mm] | diameter of the inhibition zone (DIZ) (Aspergillus fumigatus [7]) [mm] | INH [8] [mm] | pIC50 (HepG2) | diameter of the inhibition zone (DIZ) (Bacillus cereus [9]) [mm] | pIC50 (HT-29) | pIC50 [14] | MIC (Aspergillus fumigatus [16]) | further results
1 | CC(=O)C1(C(C)=O)N=Nc2sc3c(c2C1=O)CCCCC3 | 4.83 | 19 | <2 | <2 | <2 | 3 | 4.68 | 7 | 4.89 | 4.34 |  | MST (Ehrlich [2]): 36 days; Activity (Ehrlich [5]): 3.3 mL; Activity (Mus musculus [6]): 9.11 ×10³ /mm3; Activity (Mus musculus [10]): 4.81 ×10⁶ /mm3; ILS (Ehrlich [11]): 148.27%; Activity (Mus musculus [12]): 12.04 g/dL; MIC (Candida albicans [13]): 513 µM (≈ 156 µg/mL); pIC50 (WI-38): 4.32
2 | Nc1nc2sc3c(c2c(=O)n1N)CCCCC3 | 4.45 | <2 | 11 | 5 | <2 | < 2 | 4.08 | 17 | 4.29 |  |  | MIC (Bacillus cereus [15]): 1250 µM (≈ 313 µg/mL)
3 | O=c1[nH]cc(F)c(=O)[nH]1 [FLUOROURACIL] | 5.24 |  |  |  |  |  | 5.16 |  | 5.34 |  |  | MST (Ehrlich [2]): 49 days; Activity (Ehrlich [5]): 1.6 mL; Activity (Mus musculus [6]): 8.86 ×10³ /mm3; Activity (Mus musculus [10]): 5.21 ×10⁶ /mm3; ILS (Ehrlich [11]): 237.9%; Activity (Mus musculus [12]): 12.96 g/dL
4 | CC(=O)c1c(O)c2c3c(sc2[nH]c1=O)CCCCC3 | 4.60 | 9 | 12 | 8 | 24 | 5 | 4.26 | 9 | 4.33 | 4.25 | 563 µM | 
5 | OC(Cn1cncn1)(Cn1cncn1)c1ccc(F)cc1F [FLUCONAZOLE] |  | 22 |  |  | <2 |  |  |  |  |  | > 2500 µg/mL | MIC (Candida albicans [13]): 4080 µM (≈ 1250 µg/mL)
6 | NNC(=O)c1c(NN=C2C(=O)NNC2=O)sc2c1CCC2 |  | <2 | <2 | <2 | 17 | 8 |  | <2 |  |  | 1010 µM | 
7 | CCOC(=O)c1c(NN=C(C#N)C#N)sc2c1CCCCC2 | 5.09 | 11 | 7 | 19 | 9 | 9 | 4.97 | 11 | 5.12 | 4.26 |  | MST (Ehrlich [2]): 42.5 days; Activity (Ehrlich [5]): 2.7 mL; Activity (Mus musculus [6]): 8.18 ×10³ /mm3; MIC (Staphylococcus aureus [17]): 988 µM (≈ 312 µg/mL); Activity (Mus musculus [10]): 5.09 ×10⁶ /mm3; ILS (Ehrlich [11]): 193.1%; Activity (Mus musculus [12]): 12.54 g/dL; pIC50 (WI-38): 4.27
8 | NNC(=O)c1c(NN=C2C(N)=NN=C2N)sc2c1CCCCC2 | 4.63 | 24 | 19 | 28 | 32 | 12 | 4.67 | 30 | 4.52 | 4.28 | 234 µM | MIC (Staphylococcus aureus [17]): 234 µM (≈ 78.1 µg/mL); MIC (Escherichia coli [18]): 467 µM (≈ 156 µg/mL); MIC (Candida albicans [13]): 467 µM (≈ 156 µg/mL); MIC (Bacillus cereus [15]): 234 µM (≈ 78.1 µg/mL)
9 | CO/N=C(\C(=O)N[C@@H]1C(=O)N2C(C(=O)O)=C(COC(C)=O)CS[C@H]12)c1csc(N)n1 [CEFOTAXIME] |  |  |  |  |  |  |  |  |  |  |  | MIC (Staphylococcus aureus [17]): 32.9 µM (≈ 15 µg/mL); MIC (Escherichia coli [18]): 13.6 µM (≈ 6.19 µg/mL)
10 | GENTAMICIN |  |  |  |  |  |  |  |  |  |  |  | MIC (Bacillus cereus [15]): 0.31 µM
11 | COc1cccc2c1C(=O)c1c(O)c3c(c(O)c1C2=O)C[C@@](O)(C(=O)CO)C[C@@H]3O[C@H]1C[C@H](N)[C@H](O)[C@H](C)O1 [DOXORUBICIN] |  |  |  |  |  |  |  |  |  | 4.49 |  | 
12 | CCOC(=O)c1c(NN=C(C(C)=O)C(C)=O)sc2c1CCCCC2 | 4.67 | 20 | 6 | 8 | 30 | 4 | 4.51 | 14 | 4.27 | 4.43 | 223 µM | MIC (Candida albicans [13]): 223 µM (≈ 78.1 µg/mL)
13 | CCOC(=O)C1(C(C)=O)N=Nc2sc3c(c2C1=O)CCCCC3 (stereo not drawn) | 4.30 | 5 | 17 | <2 | <2 | 3 | 4.04 | 5 | 4.10 |  |  | MIC (Escherichia coli [18]): 934 µM (≈ 312 µg/mL)
14 | CCOC(=O)c1c(N/N=C(\C(C)=O)C(=O)c2ccccc2)sc2c1CCC2 | 4.86 | <2 | 7 | 9 | 2 | 3 | 4.55 | 14 | 4.24 | 4.53 |  | MST (Ehrlich [2]): 33.5 days; Activity (Ehrlich [5]): 3.53 mL; Activity (Mus musculus [6]): 9.62 ×10³ /mm3; Activity (Mus musculus [10]): 4.79 ×10⁶ /mm3; ILS (Ehrlich [11]): 130.95%; Activity (Mus musculus [12]): 11.74 g/dL; pIC50 (WI-38): 4.17
15 | CC(=O)C1(C(=O)c2ccccc2)N=Nc2sc3c(c2C1=O)CCCCC3 (stereo not drawn) | 4.93 | <2 | <2 | 5 | <2 | 11 | 4.85 | 16 | 5.01 | 4.67 |  | MST (Ehrlich [2]): 43.3 days; Activity (Ehrlich [5]): 2.55 mL; Activity (Mus musculus [6]): 7.95 ×10³ /mm3; Activity (Mus musculus [10]): 5.16 ×10⁶ /mm3; ILS (Ehrlich [11]): 198.62%; Activity (Mus musculus [12]): 12.92 g/dL; pIC50 (WI-38): 4.20; MIC (Bacillus cereus [15]): 853 µM (≈ 313 µg/mL)
16 | CC1(C)S[C@@H]2[C@H](NC(=O)[C@H](N)c3ccccc3)C(=O)N2[C@H]1C(=O)O [AMPICILLIN] |  |  | 28 | 20 |  |  |  | 12 |  |  |  | MIC (Staphylococcus aureus [17]): 894 µM (≈ 313 µg/mL); MIC (Escherichia coli [18]): 55.9 µM (≈ 19.5 µg/mL); MIC (Bacillus cereus [15]): 3580 µM (≈ 1250 µg/mL)
17 | CCOC(=O)c1c(NN=C(C(C)=O)C(C)=O)sc2c1CCC2 | 5.12 | 23 | 21 | 22 | 26 | 11 | 4.86 | 26 | 4.73 | 4.37 | 485 µM | MST (Ehrlich [2]): 39.5 days; Activity (Ehrlich [5]): 3.13 mL; Activity (Mus musculus [6]): 8.76 ×10³ /mm3; MIC (Staphylococcus aureus [17]): 485 µM (≈ 156 µg/mL); MIC (Escherichia coli [18]): 485 µM (≈ 156 µg/mL); Activity (Mus musculus [10]): 4.95 ×10⁶ /mm3; ILS (Ehrlich [11]): 172.35%; Activity (Mus musculus [12]): 12.23 g/dL; MIC (Candida albicans [13]): 485 µM (≈ 156 µg/mL); pIC50 (WI-38): 4.47; MIC (Bacillus cereus [15]): 485 µM (≈ 156 µg/mL)
18 | CCOC(=O)c1c(-n2cnnn2)sc2c1CCCCC2 | 4.20 | <2 | 6 | 3 | <2 | < 2 | < 4.00 | 9 | < 4.00 |  |  | 
19 | NNC(=O)c1c(NN=C2C(=O)NNC2=O)sc2c1CCCCC2 | 4.54 | <2 | <2 | <2 | <2 | 6 | 4.49 | <2 | 4.31 |  |  | 
20 | NNC(=O)c1c(N/N=C2/C(=O)NN=C2N)sc2c1CCCCC2 | 4.74 | <2 | <2 | <2 | <2 | 9 | 4.45 | <2 | 4.39 |  |  | 
21 | CCOC(=O)c1c(N/N=C(\C(C)=O)C(=O)c2ccccc2)sc2c1CCCCC2 | 4.43 | 11 | <2 | <2 | 18 | 3 | 4.15 | <2 | 4.02 |  | 758 µM | 

Source: ChEMBL document CHEMBL4190350, “Synthesis, antimicrobial, antiquorum-sensing, antitumor and cytotoxic activities of new series of cyclopenta(hepta)[b]thiophene and fused cyclohepta[b]thiophene analogs” (Eur J Med Chem, 2017)
